Test results from patent EP1200445B1, “THIENOPYRANECARBOXAMIDE DERIVATIVES” (RECORDATI INDUSTRIA CHIMICA E FARMACEUTICA S.p.a., priority 1999, dated 2001).
Where two headings read alike, the source gives them in different places. One block for each molecule: values may come before it.

Experiments:
α1L adrenoceptor subtype = molecular target: T1, α1L adrenoceptor subtype (Oryctolagus cuniculus, UniProt O02824); assay: Functional affinity for α1L-adrenoceptors: noradrenaline-induced contractions of rabbit aorta pretreated with chloroethylclonidine; assay type: biochemical; conditions: rabbit aorta rings pretreated with chloroethylclonidine, NA-induced contractions, Schild plot or apparent Kb
T1 sequence (O02824 1-466): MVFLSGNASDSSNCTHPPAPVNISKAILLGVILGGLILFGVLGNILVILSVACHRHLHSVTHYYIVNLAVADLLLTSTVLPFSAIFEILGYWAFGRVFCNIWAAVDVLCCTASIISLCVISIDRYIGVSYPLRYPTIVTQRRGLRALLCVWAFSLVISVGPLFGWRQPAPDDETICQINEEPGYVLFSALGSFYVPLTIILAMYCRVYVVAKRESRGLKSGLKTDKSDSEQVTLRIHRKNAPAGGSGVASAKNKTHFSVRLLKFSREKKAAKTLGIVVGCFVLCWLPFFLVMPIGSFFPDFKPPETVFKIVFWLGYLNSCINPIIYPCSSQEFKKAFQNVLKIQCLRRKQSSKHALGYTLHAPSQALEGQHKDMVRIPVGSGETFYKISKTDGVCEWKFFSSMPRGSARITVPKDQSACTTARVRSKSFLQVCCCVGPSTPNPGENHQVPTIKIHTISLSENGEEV
Method: Adult male New Zealand rabbits were sacrificed by cervical dislocation. The aorta was removed, placed in Krebs-Henseleit buffer and dissected free of adhering tissue. […] After washout of NA and re-equilibration of the tissue (45 minutes), the drug to be tested was added and, after 30 minutes, a second NA-cumulative-concentration/response curve constructed. Each antagonist concentration was tested using 2-3 aortic rings from different rabbits.

[1] = tested on: urethral contractions (UC) induced by noradrenaline (NA); conditions: dogs, i.v.; data from Leonardi et al., J Pharmacol Exp Ther 281, 1272-1283 (1997); cited from earlier work
[2] = tested on: diastolic blood pressure (DBP); conditions: dogs, i.v.; data from Leonardi et al., J Pharmacol Exp Ther 281, 1272-1283 (1997); cited from earlier work
[3] = tested on: urethral contractions (UC) induced by noradrenaline (NA); assay: Effects on urethral contractions induced by noradrenaline injection in dogs after i.v. administration; assay type: in vivo, beagle dogs; conditions: for ED50: Canis lupus familiaris, iv, anaesthetised male beagle dogs, i.v., dose inhibiting by 50% the NA-induced increase in urethral pressure, read-out: UC ID50 NA; for Ratio (DBP/UC): ratio between the active doses DBP ED25 / UC ID50, dogs i.v.
Method: The experiments were performed according to the method of Imagawa et al. (J. Pharmacol. Methods 22, 103-111 (1989)), with substantial modifications, as follows: adult male beagle dogs, weighing 8-10 kg, were anaesthetised with pentobarbital sodium (30 mg/kg i.v. and 2 mg/kg/h i.v.), intubated and spontaneously ventilated with room air. In order to monitor systemic blood pressure (BP), a polyethylene (PE) catheter was introduced into the aortic arch through the left femoral artery. A collateral of the left femoral vein was cannulated for infusion of anaesthetic, and the right femoral vein was cannulated for administration of compounds. For intraarterial (i.a.) injection of noradrenaline (NA), a PE catheter was introduced into the lower portion of the abdominal aorta via the right external iliac artery. Through such procedure, NA was selectively distributed to the lower urinary tract. A paramedian vertical suprapubic incision extending from the base of the pelvis to the mid-abdominal region was made and the bladder and the prostate were exposed. The bladder was manually emptied with a syringe. Prostatic urethral pressure was monitored with a Mikro-tip cathe[…]) introduced into the bladder via the external urethral meatus, and withdrawn until the pressure transducer was positioned in the prostatic region of the urethra. A ligature was secured between the neck of the bladder and urethra to isolate the response of the latter and to avoid any interaction with the bladder. Another ligature was put around the Mikro-tip catheter at the external meatus, to secure the catheter itself. […] In order to compare the effects of the administered compound, dose/response curves (log dose transformation) were constructed by computing, at the peak effect, the percent decrease in diastolic blood pressure and percent inhibition of the increase in urethral pressure induced by NA.

[4] = tested on: diastolic blood pressure (DBP); assay: Effects on blood pressure in dogs after i.v. administration; assay type: in vivo; conditions: anaesthetised male beagle dogs, dose inducing a 25% decrease in diastolic blood pressure
Method: The experiments were performed according to the method of Imagawa et al. (J. Pharmacol. Methods 22, 103-111 (1989)), with substantial modifications, as follows: adult male beagle dogs, weighing 8-10 kg, were anaesthetised with pentobarbital sodium (30 mg/kg i.v. and 2 mg/kg/h i.v.), intubated and spontaneously ventilated with room air. In order to monitor systemic blood pressure (BP), a polyethylene (PE) catheter was introduced into the aortic arch through the left femoral artery. A collateral of the left femoral vein was cannulated for infusion of anaesthetic, and the right femoral vein was cannulated for administration of compounds. For intraarterial (i.a.) injection of noradrenaline (NA), a PE catheter was introduced into the lower portion of the abdominal aorta via the right external iliac artery. Through such procedure, NA was selectively distributed to the lower urinary tract. A paramedian vertical suprapubic incision extending from the base of the pelvis to the mid-abdominal region was made and the bladder and the prostate were exposed. The bladder was manually emptied with a syringe. Prostatic urethral pressure was monitored with a Mikro-tip catheter (5F) introduced into the bladder via the external urethral meatus, and withdrawn until the pressure transducer was positioned in the prostatic region of the urethra. A ligature was secured between the neck of the bladder and urethra to isolate the response of the latter and to avoid any interaction with the bladder. Another ligature was put around the Mikro-tip catheter at the external meatus, to secure the catheter itself.
After a stabilising period following the surgical procedure (30 minutes), in which arterial and prostatic urethral pressures were continuously monitored as basal values, i.a. administration of NA was made at intervals of 20 minutes.
The doses of NA chosen were such to produce an increase of at least 100% in urethral pressure. The test compounds were administered i.v. in a cumulative manner with intervals of 15-20 minutes between administrations. […]

pKb (α1L adrenoceptor subtype): 8.64
Structure (SMILES): COc1ccccc1N1CCN(CCCNC(=O)c2cccc3c(=O)c(C)c(-c4ccccc4)oc23)CC1 [Compound A]
UC ID50 NA [1]: 2.4 µg/kg | DBP ED25 [2]: 243 µg/kg

Structure (SMILES): COc1ccc(Cl)cc1N1CCN(CCCNC(=O)c2csc3c(=O)cc(-c4ccccc4)oc23)CC1 [Example 1, N-{3-[4-(5-Chloro-2-methoxyphenyl)-1-piperazinyl]-propyl}-7-oxo-5-phenyl-7H-thieno[3,2-b]pyran-3-carboxamide]
ED50 [3]: 5.3 µg/kg | Ratio (DBP/UC) [3]: 52.8 | DBP ED25 [4]: 280 µg/kg

Structure (SMILES): COc1ccccc1N1CCN(CCCNC(=O)c2csc3c(=O)cc(-c4ccccc4)oc23)CC1 [Example 2, N-{3-[4-(2-Methoxyphenyl)-1-piperazinyl]-propyl}-7-oxo-5-phenyl-7H-thieno[3,2-b]pyran-3-carboxamide]
ED50 [3]: 1.8 µg/kg | Ratio (DBP/UC) [3]: 19.7 | DBP ED25 [4]: 35.5 µg/kg

Structure (SMILES): O=C(NCCCN1CCN(c2ccccc2OCC(F)(F)F)CC1)c1csc2c(=O)cc(-c3ccccc3)oc12 [Example 5, 7-Oxo-5-phenyl-N-{3-[4-[2-(2,2,2-trifluoroethoxy)-phenyl]-1-piperazinyl]-propyl}-7H-thieno[3,2-b]pyran-3-carboxamide]
ED50 [3]: 2.7 µg/kg | Ratio (DBP/UC) [3]: >370 | DBP ED25 [4]: >1000 µg/kg
